The results in this text go back to patent publication US10513523B2, “Imidazopyrazines and pyrazolopyrimidines and their use as AMPA receptor modulators” (Janssen Pharmaceutica NV, priority 2015, dated 2019).

Each structure is given as a SMILES string.

The target in the assay is GluA1o-γ8 (GRIA1o-CACNG8 fusion construct; TARP γ8 dependent AMPA receptor) (Homo sapiens (Human), UniProt P42261+Q8WXS5). The experiment in a line: Calcium flux assay (FLIPR), inhibition of glutamate response of GluA1o-γ8 channel. The format is cell-based. The settings on record: HEK293 cells stably expressing GRIA1o-CACNG8 fusion; 15 μM glutamate; pIC50 = negative log of IC50 in molar; read-out: GluR1-γ8 (pIC50) (converted). The text has this:
This assay was used to test compounds for their ability to inhibit TARP γ8 dependent AMPA receptor activity. The AMPA receptor is a non-selective cation channel activated by glutamate. Ionotropic glutamate receptors normally desensitize too rapidly to allow detectable calcium influx in a FLIPR assay (Strange et al. (2006). “Functional characterisation of homomeric ionotropic glutamate receptors GluR1-GluR6 in a fluorescence-based high throughput screening assay.” Comb Chem High Throughput Screen 9(2): 147-158). But, this desensitization is incomplete, and a substantial steady-state current remains in the sustained presence of glutamate (Cho et al. (2007). “Two families of TARP isoforms that have distinct effects on the kinetic properties of AMPA receptors and synaptic currents.” Neuron 55(6): 890-904).
An in vitro assay was used to determine the potency of test compounds as inhibitors of the glutamate response of the channel formed by GluA1o-γ8. To ensure a 1:1 stoichiometry of GluA10 and γ8 subunits in the expressed channel, a fusion of the cDNAs for GRIA1o and CACNG8 was used. Following Shi et al (2009) “The stoichiometry of AMPA receptors and TARPs varies by neuronal cell type.” Neuron 62(5): […]), the C-terminus of the cDNA for GRI1o was fused to the N-terminus of the cDNA for γ8. The linker sequence was […]. […] A clonal cell line in HEK293 cells stably expressing this construct, with a geneticin selection marker, was generated for use in this assay. Cell expressing the GRIA1o-CACNG8 fusion construct were grown in a monolayer in 96- or 384-well microtiter plates. They were washed with assay buffer (135 mM NaCl, 4 mM KCl, 3 mM CaCl2, 1 mM MgCl2, 5 mM glucose, 10 mM HEPES, pH 7.4, 300 mOs) using a Biotek EL405 plate washer. The cells were then loaded with a calcium-sensitive dye (Calcium-5 or Calcium-6, Molecular Devices) and the test compounds at a range of concentrations. Calcium flux following the addition of 15 μM glutamate was monitored using a Molecular Devices FLIPR Tetra.
The fluorescence in each well was normalized to the fluorescence of negative and positive control wells. […] The responses to glutamate as functions of the test compound concentrations were fitted to a four-parameter logistic function. The fitted parameter corresponding to the midpoint was taken to be the potency of inhibition of the compound.
For orientation: Calcium assays in cells follow changes in intracellular calcium, usually with a dye or a luminescent sensor.

Sequence of GluA1o-γ8 (GRIA1o-CACNG8 fusion construct; TARP γ8 dependent AMPA receptor) (P42261 other isoform, or with tags, fused parts or gaps): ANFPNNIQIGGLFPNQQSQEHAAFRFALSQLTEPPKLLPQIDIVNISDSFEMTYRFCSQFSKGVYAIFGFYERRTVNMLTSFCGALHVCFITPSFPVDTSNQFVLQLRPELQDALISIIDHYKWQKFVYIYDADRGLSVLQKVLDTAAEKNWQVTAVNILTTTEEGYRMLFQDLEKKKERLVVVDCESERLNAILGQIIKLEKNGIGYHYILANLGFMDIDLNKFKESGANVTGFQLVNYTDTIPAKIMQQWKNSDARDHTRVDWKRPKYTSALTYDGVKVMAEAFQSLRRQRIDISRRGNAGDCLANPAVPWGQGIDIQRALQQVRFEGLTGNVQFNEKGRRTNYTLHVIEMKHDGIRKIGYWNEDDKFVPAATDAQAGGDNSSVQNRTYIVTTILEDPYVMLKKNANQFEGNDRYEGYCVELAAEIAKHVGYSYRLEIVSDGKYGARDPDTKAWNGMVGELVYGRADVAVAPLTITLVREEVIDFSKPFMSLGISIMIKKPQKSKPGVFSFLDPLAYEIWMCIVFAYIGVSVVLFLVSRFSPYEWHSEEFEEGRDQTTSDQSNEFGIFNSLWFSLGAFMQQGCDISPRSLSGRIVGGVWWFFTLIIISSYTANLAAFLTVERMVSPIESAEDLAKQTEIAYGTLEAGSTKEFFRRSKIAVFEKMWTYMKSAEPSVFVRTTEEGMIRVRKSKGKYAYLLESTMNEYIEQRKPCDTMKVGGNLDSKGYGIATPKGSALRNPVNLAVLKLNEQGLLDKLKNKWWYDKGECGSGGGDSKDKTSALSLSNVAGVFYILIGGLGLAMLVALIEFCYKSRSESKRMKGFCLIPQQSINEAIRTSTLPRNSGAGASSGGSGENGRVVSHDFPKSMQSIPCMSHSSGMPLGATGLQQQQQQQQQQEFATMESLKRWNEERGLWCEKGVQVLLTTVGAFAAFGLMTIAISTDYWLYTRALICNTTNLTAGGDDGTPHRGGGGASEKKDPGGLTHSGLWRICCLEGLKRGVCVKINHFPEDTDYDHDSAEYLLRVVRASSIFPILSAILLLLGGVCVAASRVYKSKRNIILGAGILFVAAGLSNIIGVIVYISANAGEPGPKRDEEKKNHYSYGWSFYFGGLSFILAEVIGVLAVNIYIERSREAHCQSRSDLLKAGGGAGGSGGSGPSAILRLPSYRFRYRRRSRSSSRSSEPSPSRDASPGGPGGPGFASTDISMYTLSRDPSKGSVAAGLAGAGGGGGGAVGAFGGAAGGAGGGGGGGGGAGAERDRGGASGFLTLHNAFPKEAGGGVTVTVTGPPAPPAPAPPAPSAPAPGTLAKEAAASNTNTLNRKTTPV

For the molecule `O=C1CCN(c2nccc3c(-c4ccc5c(c4)CC(=O)N5)c(-c4ccc(F)cc4)nn23)CC1` [Example 174, 5-[2-(4-Fluorophenyl)-7-(4-oxo-1-piperidyl)pyrazolo[1,5-c]pyrimidin-3-yl]indolin-2-one], the IC50 is 0.0794 nM.
For the molecule `O=C1Cc2cc(-c3c(-c4ccc(F)cc4)nn4c(N5CC(CO)C5)nccc34)ccc2N1` [Example 180, 5-[2-(4-Fluorophenyl)-7-[3-(hydroxymethyl)azetidin-1-yl]pyrazolo[1,5-c]pyrimidin-3-yl]indolin-2-one], the IC50 was 2 nM.
The figure for `CC(C)(C)OC(=O)N1CCN(c2nccn3c(-c4ccc5c(c4)CC(=O)N5)c(Cc4ccccc4)nc23)CC1` [Example 36, tert-Butyl 4-[2-benzyl-3-(2-oxoindolin-5-yl)imidazo[1,2-a]pyrazin-8-yl]piperazine-1-carboxylate] is 0.316 nM; for `O=C1CCN(c2nccn3c(-c4ccc5c(c4)CC(=O)N5)c(-c4ccc(F)cc4)nc23)CC1` [Example 109, 5-(2-(4-Fluorophenyl)-8-(4-oxopiperidin-1-yl)imidazo[1,2-a]pyrazin-3-yl)indolin-2-one] it is 0.0631 nM.
In the case of `O=C1Cc2cc(-c3c(-c4ccc(F)cc4)nn4c(N5CCOCC5)nccc34)ccc2N1` [Example 164, 5-[2-(4-Fluorophenyl)-7-morpholino-pyrazolo[1,5-c]pyrimidin-3-yl]indolin-2-one], the IC50 is 0.501 nM.
The figure for `Oc1ccc(-c2c(Cc3ccccc3)nc3c(N4CCOCC4)nccn23)cc1` [Example 15, 4-(2-Benzyl-8-morpholino-imidazo[1,2-a]pyrazin-3-yl)phenol] is 25.1 nM; for `O=c1[nH]c2ccc(-c3c(-c4ccc(F)cc4)nc4c(N5CCOCC5)nccn34)cc2[nH]1` [Example 11, 5-[2-(4-Fluorophenyl)-8-morpholino-imidazo[1,2-a]pyrazin-3-yl]-1,3-dihydrobenzimidazol-2-one] it is 0.398 nM; for `O=C1Cc2cc(-c3c(C4CCCCC4)nc4c(N5CCOCC5)nccn34)ccc2N1` [Example 56, 5-(2-Cyclohexyl-8-morpholino-imidazo[1,2-a]pyrazin-3-yl)indolin-2-one] it is 7.94 nM.
Take `O=C1Cc2cc(-c3c(-c4ccccc4)nc4c(N5CC(F)C5)nccn34)ccc2N1` [Example 81, 5-[8-(3-Fluoroazetidin-1-yl)-2-phenyl-imidazo[1,2-a]pyrazin-3-yl]indolin-2-one]: the IC50 was 0.398 nM.
The figure for `CN(C)c1nccn2c(-c3ccc4[nH]c(=O)[nH]c4c3)c(-c3ccc(F)cc3)nc12` [Example 101, 5-[8-(Dimethylamino)-2-(4-fluorophenyl)imidazo[1,2-a]pyrazin-3-yl]-1,3-dihydrobenzimidazol-2-one] is 0.501 nM; for `O=C(c1ccc(F)cc1)c1nc2c(N3CCOCC3)nccn2c1-c1ccc(O)cc1` [Example 149, (4-Fluorophenyl)(3-(4-hydroxyphenyl)-8-morpholinoimidazo[1,2-a]pyrazin-2-yl)methanone] it is 3.98 nM.
For `CC(C)c1nn2cnc(C(F)(F)F)cc2c1-c1ccc2[nH]c(=O)sc2c1` [Example 231, 6-[2-Isopropyl-5-(trifluoromethyl)pyrazolo[1,5-c]pyrimidin-3-yl]-3H-1,3-benzothiazol-2-one], the IC50 was 63.1 nM.
As to `COC1CCN(c2nccc3c(-c4ccc5c(c4)CC(=O)N5)c(-c4ccccc4)nn23)CC1` [Example 189, 5-[7-(4-Methoxy-1-piperidyl)-2-phenyl-pyrazolo[1,5-c]pyrimidin-3-yl]indolin-2-one], the IC50 was 0.158 nM.
As for `O=c1[nH]c2ccc(-c3c(Cc4ccccc4)nc4c(N5CCOCC5)nccn34)cc2[nH]1` [Example 22, 5-(2-Benzyl-8-morpholino-imidazo[1,2-a]pyrazin-3-yl)-1,3-dihydrobenzimidazol-2-one], the IC50 was 1.58 nM.
As for `O=C1Cc2cc(-c3c(-c4ccc(F)cc4)nc4c(N5CC6(COC6)C5)nccn34)ccc2N1` [Example 24, 5-[2-(4-Fluorophenyl)-8-(6-oxa-2-azaspiro[3.3]heptan-2-yl)imidazo[1,2-a]pyrazin-3-yl]indolin-2-one], the IC50 is 5.01 nM.
In the case of `Fc1ccc(-c2nc3c(N4CCOCC4)nccn3c2-c2ccc3[nH]nnc3c2)cc1` [Example 30, 4-[3-(1H-Benzotriazol-5-yl)-2-(4-fluorophenyl)imidazo[1,2-a]pyrazin-8-yl]morpholine] it was 79.4 nM; in that of `CC(=O)N1CCCN(c2nccn3c(-c4ccc(O)cc4)c(-c4ccc(Cl)cc4)nc23)CC1` [Example 92, 1-[4-[2-(4-Chlorophenyl)-3-(4-hydroxyphenyl)imidazo[1,2-a]pyrazin-8-yl]-1,4-diazepan-1-yl]ethanone], 25.1 nM; in that of `O=C(c1ccccc1)c1nc2c(N3CCOCC3)nccn2c1-c1ccc(O)cc1` [Example 151, [3-(4-Hydroxyphenyl)-8-morpholino-imidazo[1,2-a]pyrazin-2-yl]-phenyl-methanone], 12.6 nM.
Take `O=C1Cc2cc(-c3c(C4CCCC4)nn4c(N5CC(F)C5)nccc34)ccc2N1` [Example 196, 5-[2-Cyclopentyl-7-(3-fluoroazetidin-1-yl)pyrazolo[1,5-c]pyrimidin-3-yl]indolin-2-one]: the IC50 is 158 nM.
With `CN1CCN(c2nccn3c(-c4ccc5c(c4)CC(=O)N5)c(-c4ccc(F)cc4)nc23)CC1=O` [Example 110, 5-(2-(4-fluorophenyl)-8-(4-methyl-3-oxopiperazin-1-yl)imidazo[1,2-a]pyrazin-3-yl)indolin-2-one], the IC50 is 1.26 nM.
For the molecule `O=C1Cc2cc(-c3c(-c4ccc(F)cc4)nc4c(N5CCOC(C(F)(F)F)C5)nccn34)ccc2N1` (stereo not drawn) [Example 42, 5-[2-(4-Fluorophenyl)-8-[2-(trifluoromethyl)morpholin-4-yl]imidazo[1,2-a]pyrazin-3-yl]indolin-2-one], the IC50 is 7.94 nM.
`COc1nccc2c(-c3ccc4c(c3)CC(=O)N4)c(-c3ccccc3)nn12` [Example 206, 5-(7-Methoxy-2-phenyl-pyrazolo[1,5-c]pyrimidin-3-yl)indolin-2-one]: the IC50 is 398 nM.
In the case of `O=C1Nc2ccc(-c3c(-c4ccc(F)cc4)nc4c(N5CCOCC5)nccn34)cc2C1(F)F` [Example 136, 3,3-Difluoro-5-[2-(4-fluorophenyl)-8-morpholino-imidazo[1,2-a]pyrazin-3-yl]indolin-2-one] it was 398 nM.
The figure for `CC(C)(C)c1nn2c(N3CCOCC3)nccc2c1-c1ccc2c(c1)CC(=O)N2` [Example 182, 5-(2-tert-Butyl-7-morpholino-pyrazolo[1,5-c]pyrimidin-3-yl)indolin-2-one] is 63.1 nM; for `O=C1Cc2cc(-c3c(-c4ccc(F)cc4)nc4c(N5CCS(=O)(=O)CC5)nccn34)ccc2N1` [Example 47, 5-[8-(1,1-Dioxo-1,4-thiazinan-4-yl)-2-(4-fluorophenyl)imidazo[1,2-a]pyrazin-3-yl]indolin-2-one] it is 0.398 nM.
On to `O=C1Cc2cc(-c3c(-c4ccncc4)nc4c(N5CC(F)C5)nccn34)ccc2N1` [Example 89, 5-[8-(3-Fluoroazetidin-1-yl)-2-(4-pyridyl)imidazo[1,2-a]pyrazin-3-yl]indolin-2-one], for which the IC50 is 200 nM.
Take `O=c1ccc2cc(-c3c(-c4ccc(F)cc4)nc4c(N5CCOCC5)nccn34)ccc2[nH]1` [Example 125, 6-[2-(4-Fluorophenyl)-8-morpholino-imidazo[1,2-a]pyrazin-3-yl]-1H-quinolin-2-one]: the IC50 is 39.8 nM.
`N#Cc1ccc(-c2nc3c(N4CCNC(=O)C4)nccn3c2-c2ccc3[nH]ncc3c2)cc1` [Example 209, 4-[3-(1H-Indazol-5-yl)-8-(3-oxopiperazin-1-yl)imidazo[1,2-a]pyrazin-2-yl]benzonitrile]: the IC50 is 2 nM.
Turning to `COC1CCN(c2nccc3c(-c4ccc5[nH]c(=O)sc5c4)c(C(C)C)nn23)CC1` [Example 241, 6-[2-Isopropyl-7-(4-methoxy-1-piperidyl)pyrazolo[1,5-c]pyrimidin-3-yl]-3H-1,3-benzothiazol-2-one], the IC50 is 2.51 nM.
On to `O=C1Cc2cc(-c3c(-c4ccccc4)nn4c(N5CC[C@@H](O)[C@@H](F)C5)nccc34)ccc2N1` (relative stereo) [Example 204, (cis)-5-[7-(3-Fluoro-4-hydroxy-1-piperidyl)-2-phenyl-pyrazolo[1,5-c]pyrimidin-3-yl]indolin-2-one], for which the IC50 is 1.26 nM.
